Source: ChEMBL document CHEMBL1201862, “PubChem BioAssay data set” (2004)
The source made the active and inactive calls.

What was measured:
[1] = cytotoxicity in MITF-independent A375 cells – cell-based, CellTiter-Glo luminescence, dry powder, set 4, counter-screen for MITF inhibitor project, dose response (AID 624364); assay type: functional; settings: A-375;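 note: A375 melanoma cells are MITF independent so this is a counter screen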
[2] = viability loss in MITF-independent A375 cells – cell-based, CellTiter-Glo luminescence, dry powder, set 2, counter-screen for MITF inhibitor project, dose response (AID 624489); assay type: functional; settings: A-375;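 note: actives are compounds lowering A375 viability meaning general cytotoxicity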
[3] = target: T1, DNA repair protein RAD52 homolog (Homo sapiens, UniProt P43351); assay type: functional, biochemical
T1 sequence (P43351 whole entry): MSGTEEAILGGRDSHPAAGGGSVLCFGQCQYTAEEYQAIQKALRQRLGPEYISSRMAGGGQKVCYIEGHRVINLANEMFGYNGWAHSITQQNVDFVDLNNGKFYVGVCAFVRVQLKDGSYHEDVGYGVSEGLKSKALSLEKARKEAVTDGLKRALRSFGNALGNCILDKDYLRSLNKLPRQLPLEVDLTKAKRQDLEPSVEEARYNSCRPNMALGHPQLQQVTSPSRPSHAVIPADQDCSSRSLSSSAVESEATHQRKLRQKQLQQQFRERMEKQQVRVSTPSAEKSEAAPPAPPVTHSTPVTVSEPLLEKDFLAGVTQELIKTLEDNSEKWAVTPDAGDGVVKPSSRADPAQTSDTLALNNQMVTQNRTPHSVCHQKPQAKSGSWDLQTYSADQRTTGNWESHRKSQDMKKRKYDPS

[4] = viability loss in HepG2 liver cells – cell-based, ATP luminescence, cherry-pick, set 6, cytotoxicity control, dose response (AID 1053125); assay type: functional
Caspase-3 [5] = target: T2, Caspase-3 (Homo sapiens, UniProt P42574); assay type: functional;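 note: Dose-response selectivity test against caspase-3 for candidate inhibitors of sentrin-specific proteases (SENPs)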
T2 sequence (P42574 whole entry): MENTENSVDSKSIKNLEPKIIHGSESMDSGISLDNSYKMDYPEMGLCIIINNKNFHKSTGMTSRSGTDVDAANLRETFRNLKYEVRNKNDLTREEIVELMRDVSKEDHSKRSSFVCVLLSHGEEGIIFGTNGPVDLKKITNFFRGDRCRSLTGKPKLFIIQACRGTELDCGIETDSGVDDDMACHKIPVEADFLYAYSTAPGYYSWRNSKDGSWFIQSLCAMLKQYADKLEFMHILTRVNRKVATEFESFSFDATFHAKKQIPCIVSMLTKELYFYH

[6] = target: T3, Sentrin-specific protease 7 (Homo sapiens, UniProt Q9BQF6); assay type: functional;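 note: Luminescence-based dose-response confirmation of ultra-high-throughput screening hits, measuring inhibition of SENP7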
T3 sequence (Q9BQF6 whole entry): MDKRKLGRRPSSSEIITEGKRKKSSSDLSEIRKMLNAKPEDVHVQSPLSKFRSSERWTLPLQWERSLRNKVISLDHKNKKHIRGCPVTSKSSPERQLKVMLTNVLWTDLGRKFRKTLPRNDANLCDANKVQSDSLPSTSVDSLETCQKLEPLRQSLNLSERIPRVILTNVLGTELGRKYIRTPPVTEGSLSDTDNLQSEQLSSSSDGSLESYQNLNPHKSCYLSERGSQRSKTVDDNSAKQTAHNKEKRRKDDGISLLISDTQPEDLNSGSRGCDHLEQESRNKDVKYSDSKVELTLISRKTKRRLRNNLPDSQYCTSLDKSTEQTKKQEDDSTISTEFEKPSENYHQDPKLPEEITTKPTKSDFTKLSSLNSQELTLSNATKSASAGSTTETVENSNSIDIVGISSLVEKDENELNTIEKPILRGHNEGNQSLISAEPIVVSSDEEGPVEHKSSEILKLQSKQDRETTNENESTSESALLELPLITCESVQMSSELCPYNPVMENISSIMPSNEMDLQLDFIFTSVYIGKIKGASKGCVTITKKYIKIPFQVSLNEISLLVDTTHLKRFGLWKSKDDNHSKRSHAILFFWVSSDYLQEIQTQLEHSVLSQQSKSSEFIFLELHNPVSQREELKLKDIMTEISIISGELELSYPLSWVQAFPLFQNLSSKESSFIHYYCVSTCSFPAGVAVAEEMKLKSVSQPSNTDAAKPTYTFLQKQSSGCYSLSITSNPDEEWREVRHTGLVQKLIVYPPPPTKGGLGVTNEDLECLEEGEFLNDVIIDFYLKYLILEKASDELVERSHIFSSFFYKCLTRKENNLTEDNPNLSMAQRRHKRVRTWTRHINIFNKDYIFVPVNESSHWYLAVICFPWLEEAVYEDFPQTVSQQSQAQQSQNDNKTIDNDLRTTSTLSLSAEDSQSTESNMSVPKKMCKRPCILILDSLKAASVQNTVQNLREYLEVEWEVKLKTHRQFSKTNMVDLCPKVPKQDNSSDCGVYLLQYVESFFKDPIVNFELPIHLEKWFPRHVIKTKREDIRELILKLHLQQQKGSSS

[7] = target: T4, Sentrin-specific protease 6 (Homo sapiens, UniProt Q9GZR1); assay type: functional;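 note: Luminescence-based dose-response confirmatory assay of SENP6 inhibition, following up an ultra-high-throughput screen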
T4 sequence (Q9GZR1 whole entry): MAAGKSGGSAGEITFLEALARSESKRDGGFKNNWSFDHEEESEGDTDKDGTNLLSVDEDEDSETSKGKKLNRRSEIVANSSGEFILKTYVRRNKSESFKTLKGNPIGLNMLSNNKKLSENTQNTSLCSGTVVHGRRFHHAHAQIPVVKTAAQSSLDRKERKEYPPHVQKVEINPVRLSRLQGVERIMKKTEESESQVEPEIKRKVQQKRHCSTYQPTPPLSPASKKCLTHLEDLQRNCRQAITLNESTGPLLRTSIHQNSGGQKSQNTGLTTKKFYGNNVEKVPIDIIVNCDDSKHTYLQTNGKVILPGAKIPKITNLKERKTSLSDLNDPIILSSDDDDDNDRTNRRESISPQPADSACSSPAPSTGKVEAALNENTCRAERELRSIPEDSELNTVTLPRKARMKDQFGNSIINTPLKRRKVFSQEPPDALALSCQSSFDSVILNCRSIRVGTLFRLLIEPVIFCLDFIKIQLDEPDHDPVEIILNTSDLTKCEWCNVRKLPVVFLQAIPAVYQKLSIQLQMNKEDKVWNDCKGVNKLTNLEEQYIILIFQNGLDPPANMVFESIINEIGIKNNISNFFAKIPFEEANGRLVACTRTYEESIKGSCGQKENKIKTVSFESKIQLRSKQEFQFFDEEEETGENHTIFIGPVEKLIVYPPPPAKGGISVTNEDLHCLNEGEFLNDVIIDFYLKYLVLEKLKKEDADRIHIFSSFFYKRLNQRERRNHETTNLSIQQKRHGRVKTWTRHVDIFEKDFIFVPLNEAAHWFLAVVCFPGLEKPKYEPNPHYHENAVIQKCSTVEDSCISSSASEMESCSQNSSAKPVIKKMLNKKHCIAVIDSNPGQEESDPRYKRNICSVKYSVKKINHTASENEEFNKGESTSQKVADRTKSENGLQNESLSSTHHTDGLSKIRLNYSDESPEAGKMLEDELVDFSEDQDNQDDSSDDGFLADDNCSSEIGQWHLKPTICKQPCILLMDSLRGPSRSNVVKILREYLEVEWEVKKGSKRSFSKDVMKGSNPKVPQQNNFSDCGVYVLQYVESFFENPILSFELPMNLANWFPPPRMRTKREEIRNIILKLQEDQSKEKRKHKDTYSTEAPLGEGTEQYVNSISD

[8] = target: T5, Sentrin-specific protease 8 (Homo sapiens, UniProt Q96LD8); assay type: functional;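 note: luminescence read-out of SENP8 inhibition, dose-response confirmation following an ultra-high-throughput screen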
T5 sequence (Q96LD8 whole entry): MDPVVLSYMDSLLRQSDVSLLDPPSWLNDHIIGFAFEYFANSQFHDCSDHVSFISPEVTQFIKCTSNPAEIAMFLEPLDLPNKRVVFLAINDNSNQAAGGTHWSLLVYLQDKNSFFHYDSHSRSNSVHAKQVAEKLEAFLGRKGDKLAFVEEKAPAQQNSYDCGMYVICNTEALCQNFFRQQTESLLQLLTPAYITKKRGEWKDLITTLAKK

H9c2 = assay: cells; assay type: functional, cell-based; settings: Rattus norvegicus, H9c2, Myocardium
[9] = target: Mitochondrial peptide methionine sulfoxide reductase (Bos taurus, UniProt P54149); assay: Absorbance-based biochemical high throughput dose response assay for activators of Methionine sulfoxide reductase A (MsrA).; assay type: functional
Sequence of Mitochondrial peptide methionine sulfoxide reductase (P54149 whole entry): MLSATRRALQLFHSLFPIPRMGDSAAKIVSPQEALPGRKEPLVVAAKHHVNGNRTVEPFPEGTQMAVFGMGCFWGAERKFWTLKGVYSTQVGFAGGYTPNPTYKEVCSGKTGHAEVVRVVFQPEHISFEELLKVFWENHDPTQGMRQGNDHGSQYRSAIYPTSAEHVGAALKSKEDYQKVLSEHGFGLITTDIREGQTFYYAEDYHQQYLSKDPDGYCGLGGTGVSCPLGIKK

Caspase-6 = target: T6, Caspase-6 (Homo sapiens, UniProt P55212); assay: inhibition of CASP6 peptide cleavage – biochemical, VEID-R110 fluorescence, cherry-pick, dose response (AID 720632)
T6 sequence (P55212 whole entry): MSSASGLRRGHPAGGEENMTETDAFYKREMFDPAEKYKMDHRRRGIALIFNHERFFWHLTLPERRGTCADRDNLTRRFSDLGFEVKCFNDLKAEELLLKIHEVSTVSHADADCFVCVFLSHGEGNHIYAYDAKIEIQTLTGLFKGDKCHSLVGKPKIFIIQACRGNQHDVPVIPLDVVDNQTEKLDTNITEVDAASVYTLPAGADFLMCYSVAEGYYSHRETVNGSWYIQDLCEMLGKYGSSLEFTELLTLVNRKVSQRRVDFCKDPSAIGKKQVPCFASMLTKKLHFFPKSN

Caspase-9 = Caspase-9 (Homo sapiens, UniProt P55211); assay: inhibitors of purified CASP9 protease – biochemical, fluorescence, plate reader, cherry-picked samples, selectivity assay for caspase-6 inhibitor project, dose response (AID 743293)
Sequence of Caspase-9 (P55211 1-315 limits assumed): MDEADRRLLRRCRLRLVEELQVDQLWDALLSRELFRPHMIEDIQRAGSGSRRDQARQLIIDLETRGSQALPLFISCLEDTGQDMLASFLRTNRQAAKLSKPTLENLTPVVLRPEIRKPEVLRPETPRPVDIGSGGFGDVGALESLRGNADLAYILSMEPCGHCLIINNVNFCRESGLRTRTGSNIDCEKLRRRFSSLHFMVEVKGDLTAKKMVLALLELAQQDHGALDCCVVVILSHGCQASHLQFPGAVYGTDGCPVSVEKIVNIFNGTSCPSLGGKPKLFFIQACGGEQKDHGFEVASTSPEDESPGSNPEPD
Sequence of Caspase-9 (P55211 331-416 limits assumed): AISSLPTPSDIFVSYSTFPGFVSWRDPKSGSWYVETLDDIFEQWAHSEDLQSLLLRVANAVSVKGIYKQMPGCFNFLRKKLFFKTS

[10] = target: Tyrosyl-DNA phosphodiesterase 2 (Homo sapiens, UniProt O95551); assay: potency against TDP2 phosphodiesterase activity – biochemical, epi absorbance, IC50, dose response (AID 743297)
Sequence of Tyrosyl-DNA phosphodiesterase 2 (O95551 whole entry): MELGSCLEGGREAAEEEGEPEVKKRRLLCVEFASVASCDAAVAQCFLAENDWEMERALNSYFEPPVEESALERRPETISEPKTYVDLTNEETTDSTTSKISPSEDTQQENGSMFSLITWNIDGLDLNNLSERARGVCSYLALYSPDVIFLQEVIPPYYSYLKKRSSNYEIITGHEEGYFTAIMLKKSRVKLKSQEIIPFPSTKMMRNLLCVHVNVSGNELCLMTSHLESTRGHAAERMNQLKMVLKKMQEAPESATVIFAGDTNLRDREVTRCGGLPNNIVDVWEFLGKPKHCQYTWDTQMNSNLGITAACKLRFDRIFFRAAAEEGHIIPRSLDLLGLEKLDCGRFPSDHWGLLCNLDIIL

Caspase-7 = Caspase-7 (Homo sapiens, UniProt P55210); assay: caspase-7 enzyme inhibition, selectivity check – biochemical, DEVD-R110 fluorescence, cherry-pick, selectivity assay for caspase-6 inhibitor project, dose response (AID 743295); assay type: functional
Sequence of Caspase-7 (P55210 24-198 limits assumed): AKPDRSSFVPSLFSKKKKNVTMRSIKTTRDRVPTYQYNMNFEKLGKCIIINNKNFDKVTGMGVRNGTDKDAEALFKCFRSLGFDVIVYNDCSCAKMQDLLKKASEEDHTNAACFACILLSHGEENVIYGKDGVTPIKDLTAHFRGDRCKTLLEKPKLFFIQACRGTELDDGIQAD
Sequence of Caspase-7 (P55210 207-303 limits assumed): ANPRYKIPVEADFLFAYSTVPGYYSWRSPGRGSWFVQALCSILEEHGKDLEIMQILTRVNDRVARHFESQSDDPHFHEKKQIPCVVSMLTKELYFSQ

Caspase-8 = Caspase-8 (Homo sapiens, UniProt Q14790); assay: inhibitors of purified CASP8 protease – biochemical, Z-IETD-R110 fluorescence, cherry-picked samples, selectivity assay for caspase-6 inhibitor project, dose response (AID 743294)
Sequence of Caspase-8 (Q14790 217-374 limits assumed): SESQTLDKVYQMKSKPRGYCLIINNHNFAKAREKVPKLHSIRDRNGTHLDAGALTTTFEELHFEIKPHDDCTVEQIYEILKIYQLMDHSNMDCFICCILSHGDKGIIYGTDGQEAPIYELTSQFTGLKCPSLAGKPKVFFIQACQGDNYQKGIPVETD
Sequence of Caspase-8 (Q14790 385-479 limits assumed): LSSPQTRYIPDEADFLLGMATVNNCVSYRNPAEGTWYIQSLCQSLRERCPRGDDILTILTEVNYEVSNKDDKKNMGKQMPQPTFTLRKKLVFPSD

Caspase-3 [11] = target: T2, Caspase-3; assay: human caspase-3 protease activity blockade – biochemical, fluorescence, cherry-picked samples, selectivity assay for caspase-6 allosteric inhibitor project, dose response (AID 743291)
[12] = target: T7, Methionyl-tRNA synthetase, putative (Trypanosoma brucei brucei, UniProt Q38C91); assay type: functional, Trypanosoma brucei brucei strain 927/4 GUTat10.1
T7 sequence (Q38C91 whole entry): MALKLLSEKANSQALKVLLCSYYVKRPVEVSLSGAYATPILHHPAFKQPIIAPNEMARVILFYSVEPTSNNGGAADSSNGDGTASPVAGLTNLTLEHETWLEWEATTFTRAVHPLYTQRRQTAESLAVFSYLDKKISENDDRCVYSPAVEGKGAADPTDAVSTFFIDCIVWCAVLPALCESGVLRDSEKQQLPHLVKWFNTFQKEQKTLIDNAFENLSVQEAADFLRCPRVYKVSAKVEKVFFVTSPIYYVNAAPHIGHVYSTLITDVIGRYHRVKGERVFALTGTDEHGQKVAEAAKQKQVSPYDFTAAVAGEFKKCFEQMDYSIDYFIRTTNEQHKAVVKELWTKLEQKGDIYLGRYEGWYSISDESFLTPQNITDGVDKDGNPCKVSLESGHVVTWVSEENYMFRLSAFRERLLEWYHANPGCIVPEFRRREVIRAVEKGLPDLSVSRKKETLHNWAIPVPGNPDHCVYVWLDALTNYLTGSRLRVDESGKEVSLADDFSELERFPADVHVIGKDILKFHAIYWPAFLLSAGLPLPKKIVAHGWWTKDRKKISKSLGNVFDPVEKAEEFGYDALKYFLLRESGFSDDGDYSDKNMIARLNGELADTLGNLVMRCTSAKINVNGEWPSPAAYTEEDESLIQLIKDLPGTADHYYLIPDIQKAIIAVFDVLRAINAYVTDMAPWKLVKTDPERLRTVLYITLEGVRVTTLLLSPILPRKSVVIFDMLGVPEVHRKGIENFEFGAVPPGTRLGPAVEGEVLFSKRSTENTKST

[13] = Counterscreen for inhibitors of Trypanosoma brucei methionyl tRNA synthetase (MetRS): Luminescence-based cell-based high throughput dose response assay to identify compounds that are cytotoxic to Jurkat human T lymphocyte cells.; assay type: functional
[14] = target: T7, Methionyl-tRNA synthetase, putative; assay type: functional, Trypanosoma brucei brucei strain 927/4 GUTat10.1; remark: listed apart in the source
[15] = Late stage counterscreen for inhibitors of Trypanosoma brucei methionyl tRNA synthetase (MetRS): Luminescence-based cell-based high throughput dose response assay to identify compounds that are cytotoxic to Jurkat human T lymphocyte cells.; assay type: functional

## O=C1C(NS(=O)(=O)c2cccs2)=C(N2CCOCC2)C(=O)c2ccccc21
[1]
  AC50: > 70 µM (inactive)
[2]
  AC50: > 70 µM (inactive)

## Cc1cccn2c(=O)c3cc(C(N)=S)c(=N)n(CCCN4CCOCC4)c3nc12
[3]
  AC50: 3.43 µM (active)
[4]
  AC50: > 52 µM (inactive)
cells
  AC50: 5.15 µM (active)

## O=C(OCc1nnc(-c2ccccc2)o1)c1ccc([N+](=O)[O-])s1
Caspase-3 [5]
  IC50: 14.3 µM (active)
[6]
  IC50: 10.1 µM (active)
[7]
  IC50: 6.79 µM (active)
[8]
  IC50: 5.56 µM (active)
H9c2
  IC50: > 79 µM (inactive)
[9]
  EC50: 33.1 µM (inactive)
Caspase-6
  AC50: 3.66 µM (active)
Caspase-9
  AC50: 18.4 µM (active)
[10]
  IC50: 24.2 µM (inactive)
Caspase-7
  AC50: 14.6 µM (active)
Caspase-8
  AC50: 23.3 µM (active)
Caspase-3 [11]
  AC50: 6.9 µM (active)

## CN1CC(=O)N2C(c3cccc([N+](=O)[O-])c3)c3[nH]c4ccccc4c3C[C@H]2C1=O (stereo partly specified)
[12]
  IC50: 0.798 µM (active)
[13]
  IC50: 83.3 µM (inactive)
[14]
  IC50: 0.393 µM (active)
[15]
  IC50: > 83.3 µM (inactive)
